≈ marks a conversion by molar mass, not a printed value.
tested on: P388; assay: Cytotoxicity against mouse P388 cells; type: functional; settings: read-out: ED50 (the source's name)

SMILES | EC50
CC(=O)OCC1=CC=C[C@@]2(C)C=C3OC(=O)C(C)=C3C[C@@H]12 [TUBIPOLIDE G] | 4.01 µg/mL (≈ 14 µM)
CC(=O)OCC1=CC(C)=C[C@@]2(C)C[C@]3(C[C@H]12)C(=O)O[C@H]1O[C@H]13 [SPIROTUBIPOLIDE] | 3.24 µg/mL (≈ 10.6 µM)
CC1=CC=C[C@@]2(C)C[C@@H]3OC(=O)C(C)=C3C[C@@H]12 [TUBIPOLIDE B] | 3.69 µg/mL (≈ 16 µM)
